In assay [1] the target is GDP-bound NRAS wild-type protein (Homo sapiens, UniProt P01111). The assay is described as follows: Binding to NRAS by surface plasmon resonance (SPR), Single Cycle Kinetics. (In general: Surface plasmon resonance follows binding to a sensor surface in real time, without labels.)
The target in assay [2] is GDP-bound HRAS wild-type protein (Homo sapiens, UniProt P01112). As to the kind of experiment: Binding to HRAS by surface plasmon resonance (SPR), Single Cycle Kinetics.
GDP-bound HRAS wild-type protein, sequence (P01112 whole entry): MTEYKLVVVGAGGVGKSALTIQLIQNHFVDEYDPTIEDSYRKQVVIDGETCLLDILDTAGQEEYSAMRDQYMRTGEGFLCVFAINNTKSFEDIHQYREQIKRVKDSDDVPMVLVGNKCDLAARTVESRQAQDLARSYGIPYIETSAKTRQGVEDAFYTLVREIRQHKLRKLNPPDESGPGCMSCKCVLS
Setting [3] is: GDP-bound NRAS wild-type vs GDP-bound KRAS wild-type, SPR.
Setting [4] is: GDP-bound HRAS wild-type vs GDP-bound KRAS wild-type, SPR.

Structures are written as SMILES. Where a SMILES comes first, the peptide text is derived from it. Bridges are numbered along the chain shown (N, C = ends). [ ]: non-standard residue; d: D form. The star is where a group is joined. hPhe(3,5-F2-4-CF3) = N[C@@H](CCc1cc(F)c(C(F)(F)F)c(F)c1)C(=O)O; hPhe(3-Cl-4-CF3) = N[C@@H](CCc1ccc(C(F)(F)F)c(Cl)c1)C(=O)O; NPrPhe(4-CF3) = CCCN[C@@H](Cc1ccc(C(F)(F)F)cc1)C(=O)O; NMeGly(cPent) = CN[C@H](C(=O)O)C1CCCC1; Nva(3-Et) = CCC(CC)[C@H](N)C(=O)O; NMeD = CN[C@@H](CC(=O)O)C(=O)O; NMeL = CN[C@@H](CC(C)C)C(=O)O; Morpholide = C1CN(*)CCO1; Ac5c = NC1(C(=O)O)CCCC1; Ac4c = NC1(C(=O)O)CCC1; NEtG = CCNCC(=O)O; Sar = CNCC(=O)O

GDP-bound NRAS wild-type protein, sequence (P01111 whole entry): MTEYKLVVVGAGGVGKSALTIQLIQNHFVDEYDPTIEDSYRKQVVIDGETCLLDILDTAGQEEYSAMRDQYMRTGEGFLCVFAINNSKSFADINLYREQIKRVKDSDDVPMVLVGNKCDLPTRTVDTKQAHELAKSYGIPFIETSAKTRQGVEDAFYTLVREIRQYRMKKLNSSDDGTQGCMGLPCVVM

With `CCCN1C(=O)CN(C)C(=O)CN(C)C(=O)[C@H](C(CC)CC)NC(=O)[C@H](CC(C)C)N(C)C(=O)C[C@@H](C(=O)N(C)C)N(C)C(=O)[C@H](C2CCCC2)N(C)C(=O)C2(CCCC2)NC(=O)[C@@H]2CCCN2C(=O)[C@H](CCc2cc(F)c(C(F)(F)F)c(F)c2)NC(=O)CN(C)C(=O)[C@@H]1Cc1ccc(C(F)(F)F)cc1` [PP0747] ([NMeL][Nva(3-Et)][Sar][Sar][NPrPhe(4-CF3)][Sar][hPhe(3,5-F2-4-CF3)]P[Ac5c][NMeGly(cPent)][NMeD]-NMe2; lactam N-11), in assay [1] (KD ratio NRAS/KRAS, SPR), the “NRAS/KRAS (ratio of KD value with respect to GDP-bound NRAS wild-type protein to KD value with respect to KRAS)” value was “B (a compound having 3 or more and less than 10 is denoted as B)”. Besides, the “HRAS/KRAS (ratio of KD value with respect to GDP-bound HRAS wild-type protein to KD value with respect to KRAS)” value in assay [2] (KD ratio HRAS/KRAS, SPR) was “C (A compound having a KD ratio of 0.1 or more and less than 3 is denoted as C)”.
With `CCCOC[C@H]1C(=O)N[C@@H]([C@@H](C)CC)C(=O)N(C)CC(=O)N(C)[C@H]2C/C=C\CCN(C2=O)[C@@H](Cc2ccc(C(F)(F)F)cc2)C(=O)N(C)CC(=O)N[C@@H](CCc2ccc(C(F)(F)F)c(OC)c2)C(=O)N2C[C@@H](C)C[C@H]2C(=O)NC2(CC(C)(C)C2)C(=O)N(C)[C@@H](C2CCCC2)C(=O)N(C)[C@H](C(=O)N(C)C)CC(=O)N1C` [PP1997], in assay [1] (setting [3]), the “NRAS/KRAS (ratio of KD value for NRAS to KD value for KRAS)” value is “A (a compound having 10 or more and less than 20 is denoted as A)”. Moreover, the “HRAS/KRAS (ratio of KD value for HRAS to KD value for KRAS)” value in assay [2] (setting [4]) was “B (a compound having 3 or more and less than 10 is denoted as B)”.
For `CCC(CC)[C@H]1C(=O)N(C)[C@H](C(=O)N(C)C)CC(=O)N(C)[C@@H](COC)C(=O)N[C@@H]([C@@H](C)CC)C(=O)N(C)CC(=O)N(C)[C@H]2C/C=C\CCN(C2=O)[C@@H](CC2CCC(F)(F)CC2)C(=O)N(C)CC(=O)N[C@@H](CCc2ccc(C(F)(F)F)c(Cl)c2)C(=O)N2C[C@@H](C)C[C@H]2C(=O)NC2(CC(C)(C)C2)C(=O)N1C` [PP2454], the “NRAS/KRAS (ratio of KD value with respect to NRAS to KD value with respect to KRAS)” value in assay [1] (SPR, GDP-bound NRAS wild-type vs GDP-bound KRAS wild-type) is on record as “AA (a compound having 20 or more is denoted as AA)”. Further, the “HRAS/KRAS (ratio of KD value with respect to HRAS to KD value with respect to KRAS)” value in assay [2] (SPR, GDP-bound HRAS wild-type vs GDP-bound KRAS wild-type) was “A (a compound having 10 or more and less than 20 is denoted as A)”.
As for `CCO[C@@H]1C[C@H]2C(=O)NC3(CC(C)(C)C3)C(=O)N(C)[C@@H](CC(C)(C)C)C(=O)N(C)[C@H](C(=O)N(C)C)CC(=O)N(C)[C@@H](COC)C(=O)N[C@@H]([C@@H](C)CC)C(=O)N(C3CC3)CC(=O)N(C)[C@H]3C/C=C\CCN(C3=O)[C@@H](Cc3ccc(C(F)(F)F)cc3)C(=O)N(C)CC(=O)N[C@@H](CCc3cc(F)c(C(F)(F)F)c(F)c3)C(=O)N2C1` [PP2744], in assay [1] (KD ratio NRAS/KRAS, class symbols), the “NRAS/KRAS (ratio of KD value with respect to GDP-bound NRAS wild-type protein to KD value with respect to KRAS)” value is “A (a compound having 10 or more and less than 20 is denoted as A)”. Moreover, the “HRAS/KRAS (ratio of KD value with respect to GDP-bound HRAS wild-type protein to KD value with respect to KRAS)” value in assay [2] (KD ratio HRAS/KRAS, class symbols) was “A (a compound having 10 or more and less than 20 is denoted as A)”.
As for `CCC[C@H]1C(=O)N[C@@H]([C@@H](C)CC)C(=O)N(CCC)CC(=O)N(C)[C@H]2C/C=C\CCN(C2=O)[C@@H](Cc2ccc(C(F)(F)F)cc2)C(=O)N(C)CC(=O)N[C@@H](CCc2cc(F)c(C(F)(F)F)c(F)c2)C(=O)N2C[C@H](OCC)C[C@H]2C(=O)NC2(CCC2)C(=O)N(C)[C@@H](C2CCCC2)C(=O)N(C)[C@H](C(=O)N(C)C)CC(=O)N1C` [PP1767], in assay [1] (setting [3]), the “NRAS/KRAS (ratio of KD value for NRAS to KD value for KRAS)” value was “A (a compound having 10 or more and less than 20 is denoted as A)”. Further, the “HRAS/KRAS (ratio of KD value for HRAS to KD value for KRAS)” value in assay [2] (setting [4]) was “B (a compound having 3 or more and less than 10 is denoted as B)”.
As to `CCCN1C(=O)CN(C)C(=O)CN(CC)C(=O)[C@H]([C@@H](C)CC)NC(=O)[C@H](CC(C)C)N(C)C(=O)C[C@@H](C(=O)N2CCOCC2)NC(=O)[C@H](C2CCCC2)N(C)C(=O)C2(CCC2)NC(=O)[C@@H]2CCCN2C(=O)[C@H](CCc2ccc(C(F)(F)F)c(Cl)c2)NC(=O)CN(C)C(=O)[C@@H]1Cc1ccc(C(F)(F)F)cc1` [PP0332] ([NMeL]I[NEtG][Sar][NPrPhe(4-CF3)][Sar][hPhe(3-Cl-4-CF3)]P[Ac4c][NMeGly(cPent)]D-Morpholide; lactam N-11), the “NRAS/KRAS (ratio of KD for GDP-bound NRAS wild-type to KD for KRAS)” value in assay [1] (KD ratio NRAS/KRAS, SPR) is “B (a compound having 3 or more and less than 10 is denoted as B)”. Besides, in assay [2] (KD ratio HRAS/KRAS, SPR), the “HRAS/KRAS (ratio of KD for GDP-bound HRAS wild-type to KD for KRAS)” value is “B (a compound having 3 or more and less than 10 is denoted as B)”.
In the case of `CC[C@H](C)[C@@H]1NC(=O)[C@H](CC2CC2)N(C)C(=O)C[C@@H](C(=O)N(C)CC)N(C)C(=O)[C@H](C2CCCC2)N(C)C(=O)C2(CC(C)(C)C2)NC(=O)[C@@H]2C[C@@H](C)CN2C(=O)[C@H](CCc2ccc(C(F)(F)F)c(OC)c2)NC(=O)CN(C)C(=O)[C@H](Cc2ccc(C)cc2)N2CC/C=C\C[C@@H](C2=O)N(C)C(=O)CN(C)C1=O` [PP1902], the “NRAS/KRAS (ratio of KD value for NRAS to KD value for KRAS)” value in assay [1] (setting [3]) was “A (a compound having 10 or more and less than 20 is denoted as A)”. In assay [2] (setting [4]), the “HRAS/KRAS (ratio of KD value for HRAS to KD value for KRAS)” value was “A (a compound having 10 or more and less than 20 is denoted as A)”.

The record behind these values is patent US20250230193A1, “CYCLIC COMPOUND HAVING SELECTIVE KRAS INHIBITORY EFFECT ON HRAS AND NRAS” (CHUGAI SEIYAKU KABUSHIKI KAISHA, priority 2022, published 2025).
